Patent publication US11370794B2, “Toll-like receptor antagonist compounds and methods of use” (Dynavax Technologies Corporation, priority 2016, dated 2022)
Read-outs that look alike come from different tables or passages of the source.

Key:
human TLR8 = target: T1, human TLR8 (Homo sapiens, UniProt Q9NR97); test: Inhibition of human TLR8 in human monocytes (TNF-alpha / IL-1 beta ELISA); format: cell-based; settings: for IC50: human monocytes, agonist ORN8L 100 μg/mL, TNF-alpha readout, 24 hours, read-out: Human TLR8 IC50 TNF-a
T1 construct: endogenous in cells; host or cells: primary human monocytes (CD14 microbeads) from buffy coats of healthy donors
T1 sequence (Q9NR97 27-1041): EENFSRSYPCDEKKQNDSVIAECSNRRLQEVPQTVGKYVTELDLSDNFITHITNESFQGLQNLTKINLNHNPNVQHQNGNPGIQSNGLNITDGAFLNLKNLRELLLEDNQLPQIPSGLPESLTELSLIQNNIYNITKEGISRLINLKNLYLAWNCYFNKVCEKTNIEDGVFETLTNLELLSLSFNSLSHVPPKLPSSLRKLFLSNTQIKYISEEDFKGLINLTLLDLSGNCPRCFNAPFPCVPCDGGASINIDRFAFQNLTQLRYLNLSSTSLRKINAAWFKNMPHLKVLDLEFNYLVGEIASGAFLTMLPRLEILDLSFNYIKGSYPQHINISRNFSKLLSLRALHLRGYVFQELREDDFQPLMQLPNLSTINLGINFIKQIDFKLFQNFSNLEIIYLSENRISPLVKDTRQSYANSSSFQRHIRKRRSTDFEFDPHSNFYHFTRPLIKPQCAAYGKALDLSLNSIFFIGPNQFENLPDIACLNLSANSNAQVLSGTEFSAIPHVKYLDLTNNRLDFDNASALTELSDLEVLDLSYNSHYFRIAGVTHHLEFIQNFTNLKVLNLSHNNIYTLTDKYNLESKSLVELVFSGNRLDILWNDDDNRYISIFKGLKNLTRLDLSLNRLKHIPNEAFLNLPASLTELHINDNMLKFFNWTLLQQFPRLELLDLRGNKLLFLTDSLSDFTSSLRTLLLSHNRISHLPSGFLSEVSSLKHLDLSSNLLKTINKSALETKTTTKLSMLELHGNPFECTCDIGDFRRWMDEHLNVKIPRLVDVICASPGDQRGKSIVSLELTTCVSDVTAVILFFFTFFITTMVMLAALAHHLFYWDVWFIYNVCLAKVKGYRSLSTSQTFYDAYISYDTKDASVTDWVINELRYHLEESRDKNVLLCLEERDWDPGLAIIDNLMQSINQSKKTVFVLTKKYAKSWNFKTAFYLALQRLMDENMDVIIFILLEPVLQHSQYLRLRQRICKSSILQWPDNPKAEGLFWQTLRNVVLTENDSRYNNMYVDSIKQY
Procedure, shortened: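 Primary human monocytes from donor buffy coats (~200,000 cells/well) given serially diluted compound, then ORN8L RNA oligonucleotide agonist at 100 μg/mL final. After 24 h at 37 °C, supernatant TNF-alpha and/or IL-1 beta measured by ELISA; IC50 from the concentration-response of cytokine release.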

human TLR9 = target: T2, human TLR9 (Homo sapiens, UniProt Q9NR96); test: Inhibition of human TLR9 in human B cells (IL-6 ELISA); format: cell-based; settings: for IC50: human B cells, agonist 1018 ISS 1 μM; for inhibits TLR9-dependent responses (in words): summary statement of the description
T2 construct: endogenous in cells; host or cells: primary human B cells (CD19 microbeads) from buffy coats of healthy donors
T2 sequence (Q9NR96 26-1032): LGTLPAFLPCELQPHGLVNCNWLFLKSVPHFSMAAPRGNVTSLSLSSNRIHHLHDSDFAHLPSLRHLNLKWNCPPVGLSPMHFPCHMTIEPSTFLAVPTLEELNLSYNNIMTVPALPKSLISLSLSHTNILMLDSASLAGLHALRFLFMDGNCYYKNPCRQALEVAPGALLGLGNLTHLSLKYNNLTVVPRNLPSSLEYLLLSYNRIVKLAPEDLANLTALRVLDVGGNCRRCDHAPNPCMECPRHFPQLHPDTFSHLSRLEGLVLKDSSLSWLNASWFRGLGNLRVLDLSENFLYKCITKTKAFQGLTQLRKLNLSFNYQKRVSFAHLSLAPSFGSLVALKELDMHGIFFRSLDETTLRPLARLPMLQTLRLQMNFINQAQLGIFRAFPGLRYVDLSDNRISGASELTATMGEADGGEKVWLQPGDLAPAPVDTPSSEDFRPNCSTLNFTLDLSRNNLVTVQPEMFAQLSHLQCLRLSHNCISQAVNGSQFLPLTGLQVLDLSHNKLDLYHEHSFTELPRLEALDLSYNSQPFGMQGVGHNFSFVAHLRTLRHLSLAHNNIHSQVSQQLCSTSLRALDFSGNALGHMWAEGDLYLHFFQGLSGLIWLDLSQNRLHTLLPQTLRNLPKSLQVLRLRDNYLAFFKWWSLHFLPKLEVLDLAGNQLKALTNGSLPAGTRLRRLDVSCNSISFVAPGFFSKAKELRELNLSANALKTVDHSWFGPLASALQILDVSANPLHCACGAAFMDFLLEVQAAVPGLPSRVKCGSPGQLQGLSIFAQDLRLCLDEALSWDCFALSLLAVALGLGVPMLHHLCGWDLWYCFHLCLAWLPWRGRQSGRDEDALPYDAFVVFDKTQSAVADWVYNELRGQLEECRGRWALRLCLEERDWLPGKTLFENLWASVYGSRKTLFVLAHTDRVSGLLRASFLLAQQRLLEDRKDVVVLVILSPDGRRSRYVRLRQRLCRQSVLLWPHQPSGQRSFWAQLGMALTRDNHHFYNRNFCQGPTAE
Procedure, shortened: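 Primary human B cells (CD19-isolated from donor buffy coats), ~300,000 per well, treated with compound (about 0.01–10 μM, some 0.001–30 μM) then 1 μM CpG oligonucleotide 1018 ISS. After 48 hours at 37° C, supernatant IL-6 measured by ELISA; IC50 from concentration-response of TLR9-dependent activity.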

[1] = IL-6, 48 hours, expanded dilution series about 0.001 to 30 μM, read-out: Human TLR9 IC50, expanded dilution series
[2] = IL-6 readout, 48 hours, range about 0.01 to 10 μM, read-out: Human TLR9 IC50

SMILES	IC50 (human TLR8) [nM]	IC50 (human TLR9; [1]) [nM]	IC50 (human TLR9; [2]) [nM]	inhibits TLR9-dependent responses (in words) (human TLR9)	inhibits TLR8-dependent responses (in words) (human TLR8; summary statement of the description)
Cc1ccc(-n2nc3c(N4CCC(C(=O)N5CCC(CN(C)C)C5)CC4)nnc(C)c3c2C)cc1 (stereo not drawn) [compound 45, (1-(3,4-dimethyl-2-(p-tolyl)-2H-pyrazolo[3,4-d]pyridazin-7-yl)piperidin-4-yl)(3-((dimethylamino)methyl)pyrrolidin-1-yl)methanone]	≥ 20000	14	1	inhibit	
Cc1ccc(-n2cc3cnnc(N4CCC(C(=O)NCCN(C)C)CC4)c3n2)cc1 [compound 46, N-(2-(dimethylamino)ethyl)-1-(2-(p-tolyl)-2H-pyrazolo[3,4-d]pyridazin-7-yl)piperidine-4-carboxamide]	≥ 20000	10	2	inhibit	
Cc1ccc(-n2nc3c(Cl)nnc(N4CCC(C(=O)NCCCN(C)C)CC4)c3c2C)cc1 [compound 48, 1-(7-chloro-3-methyl-2-(p-tolyl)-2H-pyrazolo[3,4-d]pyridazin-4-yl)-N-(3-(dimethylamino)propyl)piperidine-4-carboxamide]	≥ 20000		10800		
CNC(=O)C1CCN(c2nnc(C)c3c(C)n(-c4ccc(C)cc4)nc23)C1 (stereo not drawn) [compound 57, 1-(3,4-dimethyl-2-(p-tolyl)-2H-pyrazolo[3,4-d]pyridazin-7-yl)-N-methylpyrrolidine-3-carboxamide]	≥ 20000		9370		
Cc1ccc(-n2nc3c(N4CCCC(C(=O)NCCNc5ccccc5)C4)nnc(C)c3c2C)cc1 (stereo not drawn) [compound 58, 1-(3,4-dimethyl-2-(p-tolyl)-2H-pyrazolo[3,4-d]pyridazin-7-yl)-N-(2-(phenylamino)ethyl)piperidine-3-carboxamide]	≥ 20000		4820		
Cc1ccc(-n2cc3cnnc(N4CCC(CCC(=O)NCCN(C)C)CC4)c3n2)cc1 [compound 61, N-(2-(dimethylamino)ethyl)-3-(1-(2-(p-tolyl)-2H-pyrazolo[3,4-d]pyridazin-7-yl)piperidin-4-yl)propanamide]	4850		9		
Cc1ccc(-n2nc3c(N4CCC(C(=O)NCCN(C)C)CC4)nnc(C)c3c2C(F)(F)F)cc1 [compound 63, N-(2-(dimethylamino)ethyl)-1-(4-methyl-2-(p-tolyl)-3-(trifluoromethyl)-2H-pyrazolo[3,4-d]pyridazin-7-yl)piperidine-4-carboxamide]	≥ 20000		5580		
Cc1ccc(-n2cc3cnnc(N4CCC(C(=O)NCCN5CCOCC5)CC4)c3n2)cc1 [compound 64, N-(2-morpholinoethyl)-1-(2-(p-tolyl)-2H-pyrazolo[3,4-d]pyridazin-7-yl)piperidine-4-carboxamide]	≥ 20000		557		
Cc1ccc(-n2nc3c(N4CCC(CCC(=O)NC5CN(C)C5)CC4)nnc(C)c3c2C)cc1 [compound 66, 3-(1-(3,4-dimethyl-2-(p-tolyl)-2H-pyrazolo[3,4-d]pyridazin-7-yl)piperidin-4-yl)-N-(1-methylazetidin-3-yl)propanamide]	≥ 20000		182		
Cc1ccc(-n2nc3c(N4CCC(C(=O)N5CCC(N6CCOCC6)CC5)CC4)nnc(C)c3c2C)cc1 [compound 69, (1-(3,4-dimethyl-2-(p-tolyl)-2H-pyrazolo[3,4-d]pyridazin-7-yl)piperidin-4-yl)(4-morpholinopiperidin-1-yl)methanone]	3840		253		
Cc1ccc(-n2nc3c(N4CCC(C(=O)N5CCC(CN6CCOCC6)C5)CC4)nnc(C)c3c2C)cc1 (stereo not drawn) [compound 70, (1-(3,4-dimethyl-2-(p-tolyl)-2H-pyrazolo[3,4-d]pyridazin-7-yl)piperidin-4-yl)(3-(morpholinomethyl)pyrrolidin-1 yl)methanone]	5120		150		

Now from value to compound:

IC50 (human TLR8) [nM]	IC50 (human TLR9; [1]) [nM]	IC50 (human TLR9; [2]) [nM]	inhibits TLR9-dependent responses (in words) (human TLR9)	inhibits TLR8-dependent responses (in words) (human TLR8; summary statement of the description)	SMILES
2620		27			Cc1ccc(-n2cc3cnnc(N4CCCC(C(=O)NCCN(C)C)C4)c3n2)cc1 (stereo not drawn) [compound 47, N-(2-(dimethylamino)ethyl)-1-(2-(p-tolyl)-2H-pyrazolo[3,4-d]pyridazin-7-yl)piperidine-3-carboxamide]
770		6			CCN(CC)C1CCN(C(=O)C2CCN(c3nncc4cn(-c5ccc(C)cc5)nc34)CC2)CC1 [compound 59, (4-(diethylamino)piperidin-1-yl)(1-(2-(p-tolyl)-2H-pyrazolo[3,4-d]pyridazin-7-yl)piperidin-4-yl)methanone]
980		2			Cc1ccc(-n2cc3cnnc(N4CCC(C(=O)N5CCC(CN(C)C)C5)CC4)c3n2)cc1 (stereo not drawn) [compound 60, (3-((dimethylamino)methyl)pyrrolidin-1-yl)(1-(2-(p-tolyl)-2H-pyrazol[3,4-d]pyridazin-7-yl)piperidin-4-yl)methanone]
3840		21			Cc1ccc(-n2cc3cnnc(N4CCC(C(=O)NC5CN(C)C5)CC4)c3n2)cc1 [compound 62, N-(1-methylazetidin-3-yl)-1-(2-(p-tolyl)-2H-pyrazolo[3,4-d]pyridazin-7-yl)piperidine-4-carboxamide]
1850		10			Cc1ccc(-n2nc3c(N4CCC(C(=O)N5CCC(N6CCC6)CC5)CC4)nnc(C)c3c2C)cc1 [compound 65, (4-(azetidin-1-yl)piperidin-1-yl)(1-(3,4-dimethyl-2-(p-tolyl)-2H-pyrazolo[3,4-d]pyridazin-7-yl)piperidin-4-yl)methanone]
480		49	inhibit	inhibit	Cc1ccc(-n2nc3c(N4CCC(C(=O)N5CCC(N(C)Cc6ccccc6)CC5)CC4)nnc(C)c3c2C)cc1 [compound 67, (4-(benzyl(methyl)amino)piperidin-1-yl)(1-(3,4-dimethyl-2-(p-tolyl)-2H-pyrazolo[3,4-d]pyridazin-7-yl)piperidin-4-yl)methanone]
1180		85			Cc1ccc(-n2nc3c(N4CCC(C(=O)N5CCC(CN(C)Cc6ccccc6)C5)CC4)nnc(C)c3c2C)cc1 (stereo not drawn) [compound 68, (3-((benzyl(methyl)amino)methyl)pyrrolidin-1-yl)(1-(3,4-dimethyl-2-(p-tolyl)-2H-pyrazolo[3,4-d]pyridazin-7-yl)piperidin-4-yl)methanone]
